Laboratory results published in patent US9409966B2, “Glucagon-like peptide-1 derivatives and their pharmaceutical use” (priority 2007, dated 2016).
*1 amine or outer side, *2 acyl side, *3 side chain or, on linkers, in order; H or OH if unused. Where a SMILES comes first, the peptide text is derived from it. Side-chain parts run from the residue outwards. The star is where a group is joined. C20 diacid = O=C(O)CCCCCCCCCCCCCCCCCCC(=O)*; γGlu = O=C(O)[C@H](CCC(=O)[*:2])N[*:1]; Desaminohistidyl = O=C(CCc1c[nH]cn1)*; Trx = NC[C@H]1CC[C@H](C(=O)O)CC1; AEEA = NCCOCCOCC(=O)O

What was measured:
human GLP-1 receptor = biological target: T1, human GLP-1 receptor (Homo sapiens, UniProt P43220); experiment: Stimulation of cAMP formation in a cell line expressing the cloned human GLP-1 receptor; assay type: biochemical; conditions: cAMP production, purified plasma membranes from BHK467-12A (tk-ts13), AlphaScreen cAMP Assay Kit; read-out: Potency [EC50/nM]
T1 construct: expressed in transfected cells; host or cells: BHK467-12A (tk-ts13) baby hamster kidney cells; purified plasma membranes
Protocol: A stable transfected cell line has been prepared at NN A/S, Denmark, and a high expressing clone was selected for screening. The cells were grown at 5% CO2 in DMEM, 5% FCS, 1% Pen/Strep (Penicillin/Streptomycin) and 0.5 mg/ml of the selection marker G418.
Cells at approximate 80% confluence were washed 2× with PBS (Phosphate Buffered Saline) and harvested with Versene (aqueous solution of the tetrasodium salt of ethylenediaminetetraacetic acid), centrifuged 5 min at 1000 rpm and the supernatant removed. The additional steps were all made on ice. […] Suspension in Buffer 2, homogenization and centrifugation was repeated once and the membranes were resuspended in Buffer 2 and ready for further analysis or stored at −80° C.
The functional receptor assay was carried out by measuring the peptide induced cAMP production by The AlphaScreen Technology. […] The capture of cAMP is achieved by using a specific antibody conjugated to acceptor beads. Formed cAMP was counted and measured at a AlphaFusion Microplate Analyzer. The EC50 values were calculated using the Graph-Pad Prisme software (version 5).

[1] = biological target: human serum albumin (HSA) (Homo sapiens, UniProt P02768); experiment: Albumin binding affinity, competition scintillation proximity assay (SPA)
Sequence of human serum albumin (HSA) (P02768 25-609): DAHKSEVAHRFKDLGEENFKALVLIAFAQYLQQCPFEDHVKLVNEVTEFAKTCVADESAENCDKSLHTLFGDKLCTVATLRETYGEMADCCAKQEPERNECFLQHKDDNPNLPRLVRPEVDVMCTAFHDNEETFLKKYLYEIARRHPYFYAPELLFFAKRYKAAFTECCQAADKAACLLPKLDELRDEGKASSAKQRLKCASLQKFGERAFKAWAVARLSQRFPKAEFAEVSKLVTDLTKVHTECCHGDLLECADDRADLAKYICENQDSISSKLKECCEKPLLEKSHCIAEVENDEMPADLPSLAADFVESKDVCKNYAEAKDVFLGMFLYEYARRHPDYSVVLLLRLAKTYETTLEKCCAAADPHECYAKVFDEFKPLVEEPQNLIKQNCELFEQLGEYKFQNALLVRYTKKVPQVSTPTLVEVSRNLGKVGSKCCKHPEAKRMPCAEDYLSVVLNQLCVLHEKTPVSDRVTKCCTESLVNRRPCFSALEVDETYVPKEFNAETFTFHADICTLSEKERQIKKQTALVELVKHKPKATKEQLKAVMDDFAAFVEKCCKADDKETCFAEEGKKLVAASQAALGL
Protocol: Streptavidin-SPA beads (GE Healthcare RPNQ0009) were incubated with biotinylated HSA for 5 hours. The beads were washed with buffer to remove unbound HSA. […] After 20 hours of gentle rocking at room temperature the plates were centrifuged and counted on a TopCounter.

T1 sequence (P43220 24-463): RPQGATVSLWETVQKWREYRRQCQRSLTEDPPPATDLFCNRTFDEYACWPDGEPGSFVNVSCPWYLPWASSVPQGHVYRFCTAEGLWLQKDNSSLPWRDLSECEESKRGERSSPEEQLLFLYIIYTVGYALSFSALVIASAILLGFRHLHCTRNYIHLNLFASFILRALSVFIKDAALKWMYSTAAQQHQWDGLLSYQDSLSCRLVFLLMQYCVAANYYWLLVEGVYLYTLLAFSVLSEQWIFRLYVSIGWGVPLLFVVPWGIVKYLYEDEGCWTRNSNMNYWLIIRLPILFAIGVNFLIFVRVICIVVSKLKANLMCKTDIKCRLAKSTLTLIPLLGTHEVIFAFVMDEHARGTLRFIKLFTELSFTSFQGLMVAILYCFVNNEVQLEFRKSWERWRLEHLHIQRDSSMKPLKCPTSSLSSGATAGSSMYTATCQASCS

SMILES | EC50 (human GLP-1 receptor) [nM] | EC50 [1] [nM]
CC[C@H](C)[C@H](NC(=O)[C@H](Cc1ccccc1)NC(=O)[C@H](CCC(=O)O)NC(=O)[C@H](CCCNC(=N)N)NC(=O)[C@H](C)NC(=O)[C@H](C)NC(=O)[C@H](CCC(N)=O)NC(=O)[C@H](CCC(=O)O)NC(=O)[C@H](CCC(=O)O)NC(=O)[C@H](CC(C)C)NC(=O)[C@H](Cc1ccc(O)cc1)NC(=O)[C@H](CO)NC(=O)[C@H](CO)NC(=O)[C@@H](NC(=O)[C@H](CC(=O)O)NC(=O)[C@H](CO)NC(=O)[C@@H](NC(=O)[C@H](Cc1ccccc1)NC(=O)[C@@H](NC(=O)CNC(=O)[C@H](CCC(=O)O)NC(=O)C(C)(C)NC(=O)[C@@H](N)Cc1c[nH]cn1)[C@@H](C)O)[C@@H](C)O)C(C)C)C(=O)N[C@@H](C)C(=O)N[C@@H](Cc1c[nH]c2ccccc12)C(=O)N[C@@H](CC(C)C)C(=O)N[C@H](C(=O)N[C@@H](CCCNC(=N)N)C(=O)NCC(=O)N[C@@H](CCCNC(=N)N)C(=O)N[C@@H](CCCCNC(=O)COCCOCCNC(=O)COCCOCCNC(=O)CC[C@H](NC(=O)[C@H]1CC[C@H](CNC(=O)CCCCCCCCCCCCCCCCCCC(=O)O)CC1)C(=O)O)C(N)=O)C(C)C [Example 7, N-epsilon37-[2-(2-{2-[2-(2-{2-[(S)-4-Carboxy-4-({trans-4-[(19-carboxy-nonadecanoylamino)methyl]cyclohexanecarbonyl}amino)butyrylamino]ethoxy}ethoxy)acetylamino]ethoxy}ethoxy)acetyl][Aib8,Glu22,Arg26,Arg34,Lys37]GLP-1-(7-37)amide] | 0.58 | 800 to 1500
CCCCCCCCCCCCCCCCOCCOCCOCCOCCOCCOCCC(=O)NCCCC[C@H](NC(=O)[C@H](CCCNC(=N)N)NC(=O)CNC(=O)[C@H](CCCNC(=N)N)NC(=O)[C@@H](NC(=O)[C@H](CC(C)C)NC(=O)[C@H](Cc1c[nH]c2ccccc12)NC(=O)[C@H](C)NC(=O)[C@@H](NC(=O)[C@H](Cc1ccccc1)NC(=O)[C@H](CCC(=O)O)NC(=O)[C@H](CCCNC(=N)N)NC(=O)[C@H](C)NC(=O)[C@H](C)NC(=O)[C@H](CCC(N)=O)NC(=O)[C@H](CCC(=O)O)NC(=O)[C@H](CCC(=O)O)NC(=O)[C@H](CC(C)C)NC(=O)[C@H](Cc1ccc(O)cc1)NC(=O)[C@H](CO)NC(=O)[C@H](CO)NC(=O)[C@@H](NC(=O)[C@H](CC(=O)O)NC(=O)[C@H](CO)NC(=O)[C@@H](NC(=O)[C@H](Cc1ccccc1)NC(=O)[C@@H](NC(=O)CNC(=O)[C@H](CCC(=O)O)NC(=O)[C@H](C)NC(=O)CCc1c[nH]cn1)[C@@H](C)O)[C@@H](C)O)C(C)C)[C@@H](C)CC)C(C)C)C(N)=O [Example 16, N-epsilon37 (3-((2-(2-(2-(2-(2-Hexadecyloxyethoxy)ethoxy)ethoxy)ethoxy)ethoxy))propionyl)[DesaminoHis7,Glu22,Arg26,Arg34,Lys37]GLP-1(7-37)-amide] | 0.15 | 
CC[C@H](C)[C@H](NC(=O)[C@H](Cc1ccccc1)NC(=O)[C@H](CCC(=O)O)NC(=O)[C@H](CCCNC(=N)N)NC(=O)[C@H](C)NC(=O)[C@H](C)NC(=O)[C@H](CCC(N)=O)NC(=O)[C@H](CCC(=O)O)NC(=O)[C@H](CCC(=O)O)NC(=O)[C@H](CC(C)C)NC(=O)[C@H](Cc1ccc(O)cc1)NC(=O)[C@H](CO)NC(=O)[C@H](CO)NC(=O)[C@@H](NC(=O)[C@H](CC(=O)O)NC(=O)[C@H](CO)NC(=O)[C@@H](NC(=O)[C@H](Cc1ccccc1)NC(=O)[C@@H](NC(=O)CNC(=O)[C@H](CCC(=O)O)NC(=O)[C@H](C)NC(=O)CCc1c[nH]cn1)[C@@H](C)O)[C@@H](C)O)C(C)C)C(=O)N[C@@H](C)C(=O)N[C@@H](Cc1c[nH]c2ccccc12)C(=O)N[C@@H](CC(C)C)C(=O)N[C@H](C(=O)N[C@@H](CCCNC(=N)N)C(=O)NCC(=O)N[C@@H](CCCNC(=N)N)C(=O)N[C@@H](CCCCNC(=O)COCCOCCNC(=O)CC[C@H](NC(=O)CC[C@H](NC(=O)CCCCCCCCCCCNC(=O)CCCS(=O)(=O)NC(=O)CCCCCCCCCCCCCCCc1nnn(C(C)(C)C)n1)C(=O)O)C(=O)O)C(=O)O)C(C)C [Example 26, N-epsilon37-{2-[2-(2-{(S)-4-[(S)-4-(12-{4-[16-(2-tert-Butyl-2H-tetrazol-5-yl)-hexadecanoylsulfamoyl]butyrylamino}dodecanoylamino)-4-carboxybutyrylamino]-4-carboxybutyrylamino}ethoxy)ethoxy]acetyl}[DesaminoHis7,Glu22,Arg26,Arg34,Lys37] GLP-1 (7-37)] | 0.25 | 
CC[C@H](C)[C@H](NC(=O)[C@H](Cc1ccccc1)NC(=O)[C@H](CCC(=O)O)NC(=O)[C@H](CCCNC(=N)N)NC(=O)[C@H](C)NC(=O)[C@H](C)NC(=O)[C@H](CCC(N)=O)NC(=O)[C@H](CCC(=O)O)NC(=O)[C@H](CCC(=O)O)NC(=O)[C@H](CC(C)C)NC(=O)[C@H](Cc1ccc(O)cc1)NC(=O)[C@H](CO)NC(=O)[C@H](CO)NC(=O)[C@@H](NC(=O)[C@H](CC(=O)O)NC(=O)[C@H](CO)NC(=O)[C@@H](NC(=O)[C@H](Cc1ccccc1)NC(=O)[C@@H](NC(=O)CNC(=O)[C@H](CCC(=O)O)NC(=O)[C@H](C)NC(=O)CCc1c[nH]cn1)[C@@H](C)O)[C@@H](C)O)C(C)C)C(=O)N[C@@H](CCC(=O)O)C(=O)N[C@@H](Cc1c[nH]c2ccccc12)C(=O)N[C@@H](CC(C)C)C(=O)N[C@H](C(=O)N[C@@H](CCCNC(=N)N)C(=O)NCC(=O)N[C@@H](CCCNC(=N)N)C(=O)N[C@@H](CCCCNC(=O)COCCOCCNC(=O)COCCOCCNC(=O)CC[C@H](NC(=O)[C@H]1CC[C@H](CNC(=O)CCCCCCCCCCCCCCCCCCC(=O)O)CC1)C(=O)O)C(=O)O)C(C)C [Example 10, N-epsilon37-[2-(2-{2-[2-(2-{2-[(S)-4-Carboxy-4-({trans-4-[(19-carboxy-nonadecanoylamino)methyl]cyclohexanecarbonyl}amino)butyrylamino]ethoxy}ethoxy)acetylamino]ethoxy}ethoxy)acetyl][DesaminoHis7,Glu22,Arg26,Glu30,Arg34,Lys37]GLP-1-(7-37)] (Desaminohistidyl-AEGTFTSDVSSYLEEQAAREFIEWLVRGRK([AEEA-AEEA-γGlu-Trx-C20 diacid])-OH) | 0.66 | 

Compounds with a lower EC50 (human GLP-1 receptor), results first:

EC50 (human GLP-1 receptor) [nM] | EC50 [1] [nM] | SMILES
0.05 |  | CCCCCCCCCCCCCCCCCC(=O)NCCOCCOCC(=O)NCCOCCOCC(=O)NCCOCCOCC(=O)NCCCC[C@H](NC(=O)[C@H](CCCNC(=N)N)NC(=O)CNC(=O)[C@H](CCCNC(=N)N)NC(=O)[C@@H](NC(=O)[C@H](CC(C)C)NC(=O)[C@H](Cc1c[nH]c2ccccc12)NC(=O)[C@H](C)NC(=O)[C@@H](NC(=O)[C@H](Cc1ccccc1)NC(=O)[C@H](CCC(=O)O)NC(=O)[C@H](CCCNC(=N)N)NC(=O)[C@H](C)NC(=O)[C@H](C)NC(=O)[C@H](CCC(N)=O)NC(=O)[C@H](CCC(=O)O)NC(=O)[C@H](CCC(=O)O)NC(=O)[C@H](CC(C)C)NC(=O)[C@H](Cc1ccc(O)cc1)NC(=O)[C@H](CO)NC(=O)[C@H](CO)NC(=O)[C@@H](NC(=O)[C@H](CC(=O)O)NC(=O)[C@H](CO)NC(=O)[C@@H](NC(=O)[C@H](Cc1ccccc1)NC(=O)[C@@H](NC(=O)CNC(=O)[C@H](CCC(=O)O)NC(=O)[C@H](C)NC(=O)CCc1c[nH]cn1)[C@@H](C)O)[C@@H](C)O)C(C)C)[C@@H](C)CC)C(C)C)C(N)=O [Example 19, N-epsilon37-(2-(2-(2-(2-(2-(2-(2-(2-(2-(Octadecanoylamino)ethoxy)ethoxy)acetylamino)ethoxy)ethoxy)acetylamino)ethoxy)ethoxy)acetyl)[desaminoHis7,Glu22,Arg26,Arg34,Lys37] GLP-1 (7-37)amide]
0.02 | > 2000 | CCCCCCCCCCCCCCCC(=O)N[C@@H](CCC(=O)NCCOCCOCC(=O)NCCOCCOCC(=O)NCCCC[C@H](NC(=O)[C@H](CCCNC(=N)N)NC(=O)CNC(=O)[C@H](CCCNC(=N)N)NC(=O)[C@@H](NC(=O)[C@H](CC(C)C)NC(=O)[C@H](Cc1c[nH]c2ccccc12)NC(=O)[C@H](C)NC(=O)[C@@H](NC(=O)[C@H](Cc1ccccc1)NC(=O)[C@H](CCC(=O)O)NC(=O)[C@H](CCCNC(=N)N)NC(=O)[C@H](C)NC(=O)[C@H](C)NC(=O)[C@H](CCC(N)=O)NC(=O)[C@H](CCC(=O)O)NC(=O)[C@H](CCC(=O)O)NC(=O)[C@H](CC(C)C)NC(=O)[C@H](Cc1ccc(O)cc1)NC(=O)[C@H](CO)NC(=O)[C@H](CO)NC(=O)[C@@H](NC(=O)[C@H](CC(=O)O)NC(=O)[C@H](CO)NC(=O)[C@@H](NC(=O)[C@H](Cc1ccccc1)NC(=O)[C@@H](NC(=O)CNC(=O)[C@H](CCC(=O)O)NC(=O)[C@H](C)NC(=O)CCc1c[nH]cn1)[C@@H](C)O)[C@@H](C)O)C(C)C)[C@@H](C)CC)C(C)C)C(N)=O)C(=O)O [Example 18, N-epsilon37-{2-(2-(2-(2-[2-(2-(4-(hexadecanoylamino)-4-carboxybutyrylamino)ethoxy)ethoxy]acetyl)ethoxy)ethoxy)acetyl)}-[desaminoHis7,Glu22, Arg26,Arg34,Lys 37] (GLP-1-(7-37)amide]
0.07 |  | CC[C@H](C)[C@H](NC(=O)[C@H](Cc1ccccc1)NC(=O)[C@H](CCC(=O)O)NC(=O)[C@H](CCCNC(=N)N)NC(=O)[C@H](C)NC(=O)[C@H](C)NC(=O)[C@H](CCC(N)=O)NC(=O)[C@H](CCC(=O)O)NC(=O)[C@H](CCC(=O)O)NC(=O)[C@H](CC(C)C)NC(=O)[C@H](Cc1ccc(O)cc1)NC(=O)[C@H](CO)NC(=O)[C@H](CO)NC(=O)[C@@H](NC(=O)[C@H](CC(=O)O)NC(=O)[C@H](CO)NC(=O)[C@@H](NC(=O)[C@H](Cc1ccccc1)NC(=O)[C@@H](NC(=O)CNC(=O)[C@H](CCC(=O)O)NC(=O)C(C)(C)NC(=O)[C@@H](N)Cc1c[nH]cn1)[C@@H](C)O)[C@@H](C)O)C(C)C)C(=O)N[C@@H](C)C(=O)N[C@@H](Cc1c[nH]c2ccccc12)C(=O)N[C@@H](CC(C)C)C(=O)N[C@H](C(=O)N[C@@H](CCCNC(=N)N)C(=O)NCC(=O)N[C@@H](CCCNC(=N)N)C(=O)N[C@@H](CCCCNC(=O)CC[C@H](NC(=O)COCCOCCNC(=O)COCCOCCNC(=O)CCCCCCCCCCCCCCCCC(=O)O)C(=O)O)C(=O)O)C(C)C [Example 38, N-epsilon-37-[(S)-4-carboxy-4-(2-{2-[2-(2-{2-[2-(17-carboxyheptadecanoylamino)ethoxy]ethoxy}acetylamino)ethoxy]ethoxy}acetylamino)butyryl] [Aib8,Glu22,Arg26,34,Lys37] GLP-1 (7-37)]
